# Test results: patent US7294637B2 (Sepracor, Inc., priority 2000, dated 2007)
# Like-named read-outs stand apart in the source and are kept apart here.
# Key:
# [1] = molecular target: norepinephrine transporter (Homo sapiens, UniProt P23975); test: NE uptake: displacement of norephinephrine ligands in vitro (methods of Galli et al.); type: binding
# [2] = molecular target: serotonin transporter (Homo sapiens, UniProt P31645); test: 5-HT uptake: displacement of serotonin ligands in vitro (methods of Gu et al.); type: binding
# [3] = molecular target: dopamine transporter (Homo sapiens, UniProt Q01959); test: DA uptake: displacement of dopamine ligands in vitro (methods of Gu et al.)
# [4] = NE Uptake, Uptake Profile (IC50, nM)
# [5] = displacement of serotonin ligands in vitro, read-out: 5-HT Uptake, Uptake Profile (IC50)
# [6] = DA Uptake, Uptake Profile (IC50, nM), displacement of dopamine ligands in vitro
# [7] = 5-HT Uptake, Uptake Profile (IC50, nM)
# [8] = read-out: NE Uptake, Uptake Profile (IC50)
# [9] = read-out: DA Uptake, Uptake Profile (IC50), displacement of dopamine ligands in vitro
# Sequence of serotonin transporter (P31645 whole entry): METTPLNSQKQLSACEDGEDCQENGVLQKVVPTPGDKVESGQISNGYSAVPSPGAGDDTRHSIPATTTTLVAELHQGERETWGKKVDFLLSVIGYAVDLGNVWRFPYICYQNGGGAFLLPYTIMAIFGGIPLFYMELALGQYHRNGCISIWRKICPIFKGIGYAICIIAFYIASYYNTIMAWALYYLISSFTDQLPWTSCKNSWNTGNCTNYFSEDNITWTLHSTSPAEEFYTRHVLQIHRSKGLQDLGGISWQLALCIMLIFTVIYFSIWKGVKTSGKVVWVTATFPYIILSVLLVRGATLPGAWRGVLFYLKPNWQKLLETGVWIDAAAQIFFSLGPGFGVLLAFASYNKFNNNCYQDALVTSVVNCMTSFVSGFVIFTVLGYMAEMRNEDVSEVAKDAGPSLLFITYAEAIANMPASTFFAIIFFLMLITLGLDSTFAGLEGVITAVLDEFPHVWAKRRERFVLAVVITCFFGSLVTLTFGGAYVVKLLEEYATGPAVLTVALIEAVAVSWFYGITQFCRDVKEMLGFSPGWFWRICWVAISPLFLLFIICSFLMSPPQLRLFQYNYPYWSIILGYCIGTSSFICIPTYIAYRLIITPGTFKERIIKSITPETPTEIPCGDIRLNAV
# Sequence of dopamine transporter (Q01959 whole entry): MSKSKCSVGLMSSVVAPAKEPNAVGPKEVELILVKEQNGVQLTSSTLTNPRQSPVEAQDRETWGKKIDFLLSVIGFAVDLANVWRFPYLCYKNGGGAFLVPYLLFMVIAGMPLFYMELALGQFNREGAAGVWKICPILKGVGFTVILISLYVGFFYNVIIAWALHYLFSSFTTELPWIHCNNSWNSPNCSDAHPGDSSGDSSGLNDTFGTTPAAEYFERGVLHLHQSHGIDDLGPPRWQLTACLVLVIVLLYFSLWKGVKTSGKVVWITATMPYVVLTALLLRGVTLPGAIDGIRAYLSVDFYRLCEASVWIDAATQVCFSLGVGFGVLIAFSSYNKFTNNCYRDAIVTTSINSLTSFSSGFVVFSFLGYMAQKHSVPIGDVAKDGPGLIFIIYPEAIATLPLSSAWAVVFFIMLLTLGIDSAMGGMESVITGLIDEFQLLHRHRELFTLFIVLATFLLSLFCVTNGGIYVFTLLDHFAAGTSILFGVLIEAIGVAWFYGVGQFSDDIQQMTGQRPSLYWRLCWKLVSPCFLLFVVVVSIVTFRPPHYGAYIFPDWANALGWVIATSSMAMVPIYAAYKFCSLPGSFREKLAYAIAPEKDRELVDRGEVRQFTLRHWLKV
# Sequence of norepinephrine transporter (P23975 whole entry): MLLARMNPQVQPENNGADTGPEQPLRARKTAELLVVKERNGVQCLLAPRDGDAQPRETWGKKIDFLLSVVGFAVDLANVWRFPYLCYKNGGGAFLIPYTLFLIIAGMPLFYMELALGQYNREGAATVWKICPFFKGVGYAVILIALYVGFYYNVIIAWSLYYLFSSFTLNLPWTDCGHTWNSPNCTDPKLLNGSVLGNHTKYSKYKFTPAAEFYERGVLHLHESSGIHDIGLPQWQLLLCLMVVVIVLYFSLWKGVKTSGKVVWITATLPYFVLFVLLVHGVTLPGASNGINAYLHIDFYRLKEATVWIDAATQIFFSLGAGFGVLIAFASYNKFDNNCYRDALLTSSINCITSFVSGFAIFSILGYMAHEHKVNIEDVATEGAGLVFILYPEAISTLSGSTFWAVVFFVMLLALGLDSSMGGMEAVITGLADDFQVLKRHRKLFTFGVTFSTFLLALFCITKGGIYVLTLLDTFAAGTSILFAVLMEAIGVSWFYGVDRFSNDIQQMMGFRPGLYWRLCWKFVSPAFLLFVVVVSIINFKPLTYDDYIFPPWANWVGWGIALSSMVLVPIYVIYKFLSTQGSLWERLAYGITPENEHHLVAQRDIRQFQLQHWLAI
Structure (SMILES),"IC50 [1, 4] [nM]","IC50 [2, 5] [nM]","IC50 [3, 6] [nM]","IC50 [2, 7] [nM]","IC50 [1, 8] [nM]",IC50 [3] [nM],"IC50 [3, 9] [nM]"
"OC(CN1CCCC(COc2ccccc2)C1)C1(c2ccc(Cl)cc2)CCC1 (stereo not drawn) [compound 21, 1-[1-(4-Chloro-phenyl)cyclobutyl]-2-(3-phenoxymethylpiperidin-1-yl)ethanol]",< 100,< 1000,< 100,–,–,–,–
"O=C(CN1CCCC(COc2ccc(C(F)(F)F)cc2)C1)C1(c2ccc(Cl)cc2)CCC1 (stereo not drawn) [compound 23, 1-[1-(4-Chlorophenyl)cyclobutyl]-2-[3-(4-trifluoromethyl-phenoxymethyl)piperidin-1-yl]ethanone]",< 1000,> 1000,< 100,–,–,–,–
"OC(CN1CCCC(COc2ccc(C(F)(F)F)cc2)C1)C1(c2ccc(Cl)cc2)CCC1 (stereo not drawn) [compound 24, 1-[1-(4-Chlorophenyl)cyclobutyl]-2-[3-(4-trifluoromethylphenoxymethyl)piperidin-1-yl]ethanol]",< 10,< 1000,< 10,–,–,–,–
"O=C(CN1CCCC(COc2ccccc2)C1)c1ccc(Cl)cc1 (stereo not drawn) [compound 32, 1-(4-Chloro-phenyl)-2-(3-phenoxymethyl-piperidin-1-yl)-ethanone]",< 1000,–,> 1000,> 1000,–,–,–
"OC(CN1CCCC(COc2ccccc2)C1)c1ccc(Cl)cc1 (stereo not drawn) [compound 33, 1-(4-Chloro-phenyl)-2-(3-phenoxymethyl-piperidin-1-yl)-ethanol]",< 1000,< 1000,< 100,–,–,–,–
"c1ccc(OCC2CCCN(CC3(c4ccccc4)CCC3)C2)cc1 (stereo not drawn) [compound 34, 3-Phenoxymethyl-1-(1-phenyl-cyclobutylmethyl)-piperidine]",< 1000,< 1000,< 1000,–,–,–,–
"CN(C[C@@H]1CCCN(CC2(c3ccc(Cl)cc3)CCC2)C1)c1ccccc1 [compound 35, {1-[1-(4-Chloro-phenyl)-cyclobutylmethyl]-piperidin-3-R-ylmethyl}-methyl-phenyl-amine]",–,> 1000,–,–,> 1000,> 1000,–
"FC(F)(F)c1ccc(OCCC2CCCN(CC3(c4ccc(Cl)cc4)CCC3)C2)cc1 (stereo not drawn) [compound 39, 1-[1-(4-Chloro-phenyl)-cyclobutylmethyl]-3-[2-(4-trifluoromethyl-phenoxy)-ethyl]-piperidine]",< 100,> 1000,< 10,–,–,–,–
"CC(C)(CN1CCCC(COc2ccc(C(F)(F)F)cc2)C1)c1ccc(Cl)cc1 (stereo not drawn) [compound 42, 1-[2-(chloro-phenyl)-2-methyl-propyl]-3-(4-trifluoromethyl-phenoxymethyl)-piperidine]",–,> 1000,–,–,< 1000,–,< 100
"COc1ccc(OCC2CCCN(CC3(c4ccccc4)CCC3)C2)cc1 (stereo not drawn) [compound 55, 3-(4-Methoxy-phenoxymethyl)-1-(1-phenyl-cyclobutylmethyl)piperidine]",> 1000,> 1000,< 1000,–,–,–,–
FC(F)(F)c1ccc(OC[C@@H]2CCCN(CC3(c4ccc(Cl)cc4)CCC3)C2)cc1 [compound 76],< 1000,–,< 1000,> 1000,–,–,–
FC(F)(F)c1ccc(SCC2CCCN(CC3(c4ccc(Cl)cc4)CCC3)C2)cc1 (stereo not drawn) [compound 78],< 1000,> 1000,< 1000,–,–,–,–
"CC(O)(CN1CCCC(COc2ccccc2)C1)c1ccc(Cl)cc1 (stereo not drawn) [compound 79, 2-(4-Chloro-phenyl)-1-(3-phenoxymethyl-piperidin-1-yl)-propan-2-ol]",< 1000,< 100,< 1000,–,–,–,–
CC(C)(CN1CCCC(CO)C1)c1ccc(Cl)cc1 (stereo not drawn) [compound 80],–,> 1000,> 1000,–,> 1000,–,–
"OC1CCCN(CC2(c3ccc(Cl)cc3)CCC2)C1 (stereo not drawn) [compound 89, 1-[1-(4-Chlorophenyl)cyclobutylmethyl]piperidin-3-ol]",< 1000,> 1000,< 1000,–,–,–,–
"FC(F)(F)c1ccc(CCC2CCCN(CC3(c4ccccc4)CCC3)C2)cc1 (stereo not drawn) [compound 93, 1-(1-phenyl-cyclobutylmethyl]-3-[2-(4-trifluoromethyl-phenyl)-ethyl]-piperidine]",–,< 1000,–,–,> 1000,> 1000,–
"FC(F)(F)c1ccc(CCC2CCCN(CC3(c4ccc(Cl)cc4)CCC3)C2)cc1 (stereo not drawn) [compound 95, 1-[1-(4-Chloro-phenyl)-cyclobutylmethyl]-3-[2-(4-trifluoromethyl-phenyl)-ethyl]-piperidine]",–,< 1000,< 1000,–,> 1000,–,–
"FC(F)(F)c1ccc(OCC2CN(CC3(c4ccc(Cl)cc4)CCC3)C2)cc1 [compound 105, methanesulfonic acid 1-[1-(4-chloro-phenyl)-cyclobutylmethyl]-3-(4-trifluoromethyl-phenoxymethyl)-azetidine]",< 100,< 1000,< 10,–,–,–,–
"FC(F)(F)c1ccc(COC2CCCN(CC3(c4ccc(Cl)cc4)CCC3)C2)cc1 (stereo not drawn) [compound 107, 1-[1-(4-Chloro-phenyl)-cyclobutylmethyl]-3-(4-trifluoromethyl-benzyloxy)-piperidine]",< 1000,> 1000,< 1000,–,–,–,–
CC(C)(CN1CCC[C@@H](COc2ccc(C(F)(F)F)cc2)C1)c1ccc(Cl)cc1 [compound 122],–,> 1000,–,–,> 1000,–,< 1000
"Fc1ccc(OC[C@@H]2CCCN(CC3(c4ccc(Cl)cc4)CCC3)C2)cc1 [compound 133, (R)-1-[1-(4-Chloro-phenyl)-cyclobutylmethyl]-3-(4-fluoro-phenoxymethyl)-piperidine]",< 1000,–,< 1000,> 1000,–,–,–
"OC(CN1CCCC(COc2ccc(C(F)(F)F)cc2)C1)c1ccc(Cl)cc1 (stereo not drawn) [compound 136, 1-(4-Chloro-phenyl)-2-[3-(4-trifluoromethyl-phenoxymethyl)-piperidin-1-yl]-ethanol]",< 1000,< 100,< 1000,–,–,–,–
"OC(CN1CCCC(CCc2ccccc2)C1)c1ccc(Cl)cc1 (stereo not drawn) [compound 140, 1-(4-Chloro-phenyl)-2-(3-phenethyl-piperidin-1-yl)-ethanol]",< 100,< 100,< 100,–,–,–,–
"O=C(CN1CCC[C@@H](CCc2ccccc2)C1)c1ccc(Cl)cc1 [compound 145, (R)-1-(4-Chloro-phenyl)-2-(3-phenethyl-piperidin-1-yl)-ethanone]",< 1000,–,< 1000,< 1000,–,–,–
"Clc1ccc(C2(CN3CCCC(CCc4ccccc4)C3)CCC2)cc1 (stereo not drawn) [compound 147, 1-[1-(4-Chloro-phenyl)-cyclobutylmethyl]-3-phenethyl-piperidine]",< 100,> 1000,< 1000,–,–,–,–
"O=C(CN1CCCC(CCc2ccc(C(F)(F)F)cc2)C1)c1ccc(Cl)cc1 (stereo not drawn) [compound 150, 1-(4-Chloro-phenyl)-2-{3-[2-(4-trifluoromethyl-phenyl)-ethyl]-piperidin-1-yl}-ethanone]",–,> 1000,–,–,> 1000,> 1000,–
"O=C(CN1CCCC(CCc2ccc(C(F)(F)F)cc2)C1)C1(c2ccc(Cl)cc2)CCC1 (stereo not drawn) [compound 155, 1-[1-(4-Chloro-phenyl)-cyclobutyl]-2-{3-[2-(4-trifluoromethyl-phenyl)-ethyl]-piperidin-1-yl}-ethanone]",> 1000,> 1000,< 100,–,–,–,–
FC(F)(F)c1ccc(OC2CCCN(CC3(c4ccc(Cl)cc4)CCC3)C2)cc1 (stereo not drawn) [compound 158],> 1000,> 1000,< 1000,–,–,–,–
